Measurements reported in patent US3947411A, “Novel 1-aryl-2-arylalkyl-3-or-4-[4'-(substituted-alkyl)piperazino-1']butanols- 2-or-butenes-1, and methods of manufacture thereof” (Warner-Lambert Company, priority 1972, dated 1976).
Values after ≈ are worked out from the molar mass of the structure shown.

What was measured:
Solubility in water = format: physicochemical; conditions: hydrochlorides or oxalates, read-out: solubilities (in water)
How it was run: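 Water solubility given for the hydrochloride salts of most compounds and for the oxalate salts of a few.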

E. coli [1] = experiment: Minimum inhibitory concentration for bacteria, tube dilution, E. coli (Table V); format: cell-based; conditions: Escherichia coli, 48 h, read-out: Minimum Inhibitory Concentration, E. coli
C. albicans [2] = experiment: Minimum inhibitory concentration for fungi in presence of serum, C. albicans (Table VI); format: cell-based; conditions: Candida albicans; Sabouraud nutrient broth + 10% bovine serum, 28°C, 48 hours
A. niger [3] = experiment: Minimum inhibitory concentration for fungi in presence of serum, A. niger (Table VI); format: cell-based; conditions: Aspergillus niger; Sabouraud nutrient broth + 10% bovine serum, 28°C, 48 hours
Candida albicans = experiment: Agar well inhibition zone test against fungi, Candida albicans (Table II); conditions: quantity per well giving inhibition zone (500, 50, 5 μg tested); Sabouraud agar, 28°, 48 hours
Protocol: (§1) The efficacy of the compounds against fungi was tested as follows:
(§2) The test organisms, in this case the blastomycete Candida albicans and the mold Aspergillus niger, were inoculated onto Sabouraud agar plates by pouring a photometrically adjusted standard suspension of organisms on the plate. After inoculation, wells with a diameter of 5.0 mm were punched in the agar, and filled with 50 ul of the compound solution mentioned before. The quantity of compound applied thus amounted to 500 μg, 50 μg and 5 μg. After incubation at 28° for 48 hours, the quantity of compound was determined at which an inhibition of the organism's growth, in form of an inhibition zone around the corresponding well, was present.

Aspergillus niger = experiment: Agar well inhibition zone test against fungi, Aspergillus niger (Table II); conditions: quantity per well giving inhibition zone (500, 50, 5 μg tested); Sabouraud agar, 28°, 48 hours
Protocol: as §1, §2

Escherichia coli = experiment: Agar well inhibition zone test against bacteria, Escherichia coli (Table III); conditions: quantity per well giving inhibition zone (500, 50, 5 μg tested); nutrient agar, 37°, 24 hours
Protocol: (§3) The efficacy of the compounds against bacteria was tested as follows:
(§4) The test organisms, in this case Staphylococcus aureus and Escherichia coli, were inoculated on nutrient agar as described in Example 12, wells were punched, and the solutions of the compounds were transferred to fill the wells. The quantity of compound in the wells amounted again to 500 μg, 50 μg and 5 μg.
(§5) After incubation a 37° for 24 hours the quantity of compound was determined at which an inhibition of the organism's growth, in the form of an inhibition zone around the corresponding well, occurred.

A. niger [4] = experiment: Minimum inhibitory concentration for fungi, tube dilution, A. niger (Table IV); conditions: Aspergillus niger, 48 h, read-out: Minimum Inhibitory Concentration, A. niger
Protocol: (§6) A tube dilution series of the respective compound in Sabouraud nutrient broth, whose individual tubes contained concentrations of 1024 μg, 512 μg, 256 μg, 128 μg, 64 μg, 32 μg, 16 μg, 8 μg, 4 μg, 2 μg, 1.1 μg and 0.5 μg/ml, was prepared and inoculated with a photometrically standardized suspension of the test organisms or the spores thereof.

C. albicans [5] = experiment: Minimum inhibitory concentration for fungi, tube dilution, C. albicans (Table IV); conditions: Candida albicans, 48 h, read-out: Minimum Inhibitory Concentration, C. albicans
Protocol: as §6

Staphylococcus aureus = experiment: Agar well inhibition zone test against bacteria, Staphylococcus aureus (Table III); conditions: quantity per well giving inhibition zone (500, 50, 5 μg tested); nutrient agar, 37°, 24 hours
Protocol: as §3, §4, §5

Staph. aureus = experiment: Minimum inhibitory concentration for bacteria, tube dilution, Staph. aureus (Table V); conditions: Staphylococcus aureus, 48 h, read-out: Minimum Inhibitory Concentration, Staph. aureus
Protocol: A tube dilution series of the respective compound in nutrient broth whose individual tubes contained concentrations of 1024 μg, 512 μg, 256 μg, 128 μg, 64 μg, 32 μg, 1 μg, 8 μg, 4 μg, 2 μg, 1.1 μg and 0.5 μg/ml was prepared and inoculated with a photometrically standardized suspension of the test organisms.

E. coli [6] = experiment: Minimum inhibitory concentration for bacteria in presence of serum, E. coli (Table VII); format: cell-based; conditions: Escherichia coli; nutrient broth + 10% serum, 37°C, 48 hours
[7] = tested on: Mycobacterium tuberculosis II 37 RV (typus humanus); experiment: Efficacy against Mycobacteria, Tb-broth dilution series (Table I); format: cell-based; conditions: 504 h, Dubos Tb-broth + 10% bovine serum, 21 days, read-out: Minimum Inhibitory Concentration

| SMILES | solubility (Solubility in water) [mg/mL] | MIC (E. coli [1]) [µg/mL] | MIC (C. albicans [2]) [µg/mL] | MIC (A. niger [3]) [µg/mL] | Inhibition Area at μg, Cand. albicans (Candida albicans) [µg] | Inhibition Area at μg, Asp. niger (Aspergillus niger) [µg] | Inhibition Area at μg, E. coli (Escherichia coli) [µg] | MIC (A. niger [4]) [µg/mL] | MIC (C. albicans [5]) [µg/mL] | Inhibition Area at μg, Staph. aureus (Staphylococcus aureus) [µg] | MIC (Staph. aureus) [µg/mL] | MIC (E. coli [6]) [µg/mL] | MIC [7] [µg/mL] |
| --- | --- | --- | --- | --- | --- | --- | --- | --- | --- | --- | --- | --- | --- |
| CC(C(=Cc1ccccc1Cl)Cc1ccccc1Cl)N1CCN(CCN2CCN(C)CC2)CC1 (stereo not drawn) [LXVI] | 100 (≈ 199000 µM) | 128 (≈ 255 µM) | 1020 | 128 | 5 | 5 | 50 | < 0.5 | 4 (≈ 7.98 µM) | 5 | 32 (≈ 63.8 µM) | – | – |
| CC(N1CCN(CCO)CC1)C(O)(Cc1ccc(Cl)cc1)Cc1ccc(Cl)cc1 (stereo not drawn) [XLVII, 1-(p-Chloro-phenyl)-2-(p-chloro-benzyl)-3-[4'-(β-hydroxyethyl)-piperazino-1']-butanol-2] | 100 (≈ 229000 µM) | – | 256 | 64 | 5 | 5 | 500 | 32 (≈ 73.2 µM) | 32 (≈ 73.2 µM) | 5 | 4 (≈ 9.14 µM) | > 1020 | – |
| Clc1ccc(C=C(CCN2CCN(CCN3CCCCC3)CC2)Cc2ccc(Cl)cc2)cc1 [LXIII, 1-(p-chloro-phenyl)-2-(p-chlorobenzyl)-4-[4'-(β-piperidino-ethyl)-piperazino-1']-butene-1] | < 10 | 64 (≈ 132 µM) | 128 | 32 | 5 | 50 | 5 | < 0.5 | 32 (≈ 65.8 µM) | 5 | 8 (≈ 16.4 µM) | – | – |
| CCCCCCCC[N+](C)(C)CCN1CCN(C(C)C(=Cc2ccccc2)Cc2ccccc2)CC1 (stereo not drawn) [XLIII, Dimethyl-n-octyl-β-[4-(1'-phenyl-2'-benzylbutene-1'-yl-3')-piperazino-1]-ethyl-ammoniumbromide] | < 10 | 1 | 128 | 64 | 5 | 5 | 5 | < 0.5 | < 0.5 | 5 | < 0.5 | 128 | – |
| CC(C(=Cc1ccc(Cl)cc1)Cc1ccc(Cl)cc1)N1CCN(CCN2CCN(C)CC2)CC1 (stereo not drawn) [XLII, 1-p-chloro-phenyl-2-p-chloro-benzyl-3-{4'-[β-(4"-methyl-piperazino-1")-ethyl]-piperazino-1'}-butene-1] | 100 (≈ 199000 µM) | 32 (≈ 63.8 µM) | 256 | 32 | 5 | 5 | 5 | < 0.5 | < 0.5 | 5 | 32 (≈ 63.8 µM) | 1020 | – |
| CC(C(=Cc1ccccc1)Cc1ccccc1)N1CCN(CCN2CCN(CCc3ccccc3)CC2)CC1 (stereo not drawn) [XXXIX, 1-phenyl-2-benzyl-3-{4'-[β-(4"-β-phenethylpiperazino-1")-ethyl]-piperazino-1'}-butene-1] | 50 (≈ 95600 µM) | > 1020 | 64 | 128 | 5 | 5 | 50 | 32 (≈ 61.2 µM) | 4 (≈ 7.65 µM) | 5 | 32 (≈ 61.2 µM) | – | – |
| C(=C(CCN1CCN(CCN2CCCCC2)CC1)Cc1ccccc1)c1ccccc1 [LXIV] | 100 (≈ 239000 µM) | 256 (≈ 613 µM) | 128 | 8 | 50 | 5 | 5 | 8 (≈ 19.2 µM) | 8 (≈ 19.2 µM) | 5 | 8 (≈ 19.2 µM) | – | – |
| CC(C(=Cc1ccccc1)Cc1ccccc1)N1CCN(CCN(C)C)CC1 (stereo not drawn) [XXVI, 1-phenyl-2-benzyl-3-[4'-(β-dimethylamino-ethyl)-piperazino-1']-butene-1] | 100 (≈ 265000 µM) | 128 (≈ 339 µM) | 16 | 32 | 5 | 5 | 50 | 4 (≈ 10.6 µM) | 8 (≈ 21.2 µM) | 50 | 128 (≈ 339 µM) | – | – |
| CNCCCCCCN1CCN(C(C)C(=Cc2ccccc2)Cc2ccccc2)CC1 (stereo not drawn) [XLI, 1-phenyl-2-benzyl-3-[4'-(w-methyl-amino-n-hexyl)piperazino-1']-butene-1] | 100 (≈ 238000 µM) | 32 (≈ 76.3 µM) | 128 | 8 | 5 | 5 | 50 | 1 (≈ 2.38 µM) | 2 (≈ 4.77 µM) | 50 | 32 (≈ 76.3 µM) | 512 | – |
| CCCCCCCCNCCCCCCN1CCN(C(C)C(=Cc2ccccc2)Cc2ccccc2)CC1 (stereo not drawn) [XL, 1-phenyl-2-benzyl-3-[4'-(w-n-octyl-amino-n-hexyl)piperazino-1']-butene-1] | 10 (≈ 19300 µM) | 32 (≈ 61.8 µM) | 64 | 2 | 5 | 5 | 5 | < 0.5 | < 0.5 | 5 | < 0.5 | 1020 | – |
| CCCCCCCCN1CCN(CCCCCCN2CCN(C(C)C(=Cc3ccccc3)Cc3ccccc3)CC2)CC1 (stereo not drawn) [LXII, 1-phenyl-2-benzyl-3-[4'-w-(4"-n-octyl-piperazino-1")-n-hexyl-piperazino-1']-butene-1] | 25 (≈ 42600 µM) | 1020 (≈ 1740 µM) | 1020 | 512 | 5 | 50 | 50 | < 0.5 | 2 (≈ 3.41 µM) | 5 | 16 (≈ 27.3 µM) | – | – |
| CNCCN1CCN(C(C)C(=Cc2ccccc2)Cc2ccccc2)CC1 (stereo not drawn) [XXV, 1-phenyl-2-benzyl-3-[4'-(β-methylamino-ethyl)-piperazino-1']-butene-1] | 100 (≈ 275000 µM) | 64 (≈ 176 µM) | 256 | 64 | 5 | 5 | 50 | 8 (≈ 22 µM) | 64 (≈ 176 µM) | 5 | 64 (≈ 176 µM) | 512 | 10 |
